How the values were obtained:
[1] = biological target: T1, mitochondrial pyruvate carrier (MPC) (Homo sapiens, UniProt O95563+Q9Y5U8); assay: Bret IC50, inhibitory activity against MPC; format: cell-based
T1 sequence (Q9Y5U8 1-109): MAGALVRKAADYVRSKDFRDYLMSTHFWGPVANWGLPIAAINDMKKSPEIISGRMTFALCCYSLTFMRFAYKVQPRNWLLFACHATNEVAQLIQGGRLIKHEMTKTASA
T1 sequence (O95563 1-127): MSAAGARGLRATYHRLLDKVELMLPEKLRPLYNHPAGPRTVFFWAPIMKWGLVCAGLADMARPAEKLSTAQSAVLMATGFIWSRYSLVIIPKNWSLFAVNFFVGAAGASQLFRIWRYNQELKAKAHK
Excerpt: (§1) The inhibition of mitochondrial pyruvate carrier (MPC) by compounds of the invention have been tested as follows and their inhibitory activity was expressed as IC50s values.
Table 2 below presents the IC50s of the compounds of the invention.

[2] = biological target: T1, mitochondrial pyruvate carrier (MPC); assay: Seahorse Xfe24 pyruvate-dependent OCR in HeLa cells; format: cell-based; details: pyruvate-dependent OCR in presence of fCCP
Procedure: as §1
Cells are plated in the customized Seahorse plates. For HeLa cells, seeding is at 4×10^4 cells/well in […] DMEM, 10% FBS, 1% pen/strep/glutamine. 3 wells are left blank (medium alone) for internal calibration. The assay cartridge is hydrated overnight at 37° C. in 1 ml/well XF Calibrant Solution.
Since 50 μl of compound of the invention will be injected into 450 μl washed cells, compounds are made up in assay medium at 10× the final desired concentration
For dose response analyses, compounds are tested at final concentrations 30, 5, 0.83, 0.14, 0.023 μM (1:6 serial dilutions from […])
Positive control: […] (the parent hit compound which gave rise to the actual series)
Negative control: Assay medium alone.
The seahorse reagent plate is prepared as follows and transfered to the Xfe24 analyser for the calibration step:
The medium is almost completely removed from the well without allowing cells to dry Cells are washed twice with 300 μl Assay Medium. 450 μl fresh Assay Medium is added to each well. The plate is transferred to the Xfe24 analyser for measurement of pyruvate-dependent OCR. All values are normalized to the initial basal respiration rate in each well which is measured prior to addition of compounds and designated as 100%. IC50 determination is based on the average of the 3 measurements made in the presence of fCCP, taking 30 μM parent hit compound as maximal inhibition and PBS/Ca/Mg as zero inhibition.

[3] = tested on: CD8 T cells (OT1 splenocytes); assay: In vitro priming of CD8 T cells (OT1 splenocytes), memory marker expression by flow cytometry; format: cell-based, mouse; details: day 7, highest doses
Procedure: OT1 splenocytes were cultured for 3 days at a concentration of 10^6 cells per mL in RPMI medium (Gibco 61870-01) supplemented with 10% FBS, (Gibco 10270-106), 1% Penicillin/Streptomycin (Gibco 15070-063), 50 μM ß-mercaptoethanol, 1% HEPES (Gibco 15630-080), 1× Non-essential amino acids (Gibco 11140-035), 1% L-glutamine (Gibco 25030-081), 1 mM Sodium Pyruvate (Gibco 11360-039). Cells were additionally supplemented with hIL-2 100 U/ml (Glaxo-IMB), ovalbumin N4 peptide (257-264) 1 μg/ml (model peptide antigen from ovalbumin) and either different concentrations of Compound 45 or 47 or with their solvent DMSO as a control. At day 3, splenocytes were collected, washed and split, and cells were cultured for 4 additional days with 100 U/ml hIL-2 and hIL-7 (Peprotech 200-07) supplemented either with Compound 45 or 47 or DMSO. At day 7, flow cytometry analyses were performed for surface marker expression.
To evaluate the effects of MPC inhibition on T cell differentiation, OTI splenocytes were cultured in the presence of 1 μg/ml ovalbumin-derived N4 peptide, 100 IU/ml recombinant human IL-2 (rhIL-2) and the MPC inhibitors Compound 45 or 47 or control DMSO for 3 days. The cells were cultured for 4 more days in the presence of 100 IU/ml IL-2 and 10 ng/ml rhIL-7 (FIG. 1A) and the inhibitors or DMSO. When analyzing the surface expression of the central memory marker CD62L (FIG. 1B) and the pro-survival receptor CD127 (FIG. 1C) by flow cytometry on day 7, an increase in cells treated with the highest doses of compounds of the invention was observed compared to DMSO.

| SMILES | IC50 [1] [nM] | IC50 [2] [nM] | also measured |
| --- | --- | --- | --- |
| CCCc1cc(=O)[nH]c2nnc(SCc3cc(F)ccc3C#N)n12 [Compound 8, 4-fluoro-2-{[(7-oxo-5-propyl-7,8-dihydro[1,2,4]triazolo[4,3-a]pyrimidin-3-yl)sulfanyl]methyl}benzonitrile] | 5390 |  |  |
| CCCc1cc(=O)[nH]c2nnc(SCc3cc(F)ccc3OC)n12 [Compound 9, 3-[(5-fluoro-2-methoxybenzyl)sulfanyl]-5-propyl[1,2,4]triazolo[4,3-a]pyrimidin-7 (8H)-one] | 878 | 185 |  |
| Cc1cc(=O)[nH]c2nnc(SCc3ccc(Cl)cc3)n12 [Compound 85, 3-[(4-chlorobenzyl)sulfanyl]-5-methyl[1,2,4]triazolo[4,3-a]pyrimidin-7 (8H)-one] | 12500 |  |  |
| CCCc1cc(=O)[nH]c2nnc(S(=O)(=O)Cc3c(F)cccc3Cl)n12 [Compound 50, 3-[(2-chloro-6-fluorobenzyl)sulfonyl]-5-propyl[1,2,4]triazolo[4,3-a]pyrimidin-7 (8H)-one] | 11200 |  |  |
| O=c1cc(CCOCc2ccccc2)n2c(SCc3cc(F)ccc3F)nnc2[nH]1 [Compound 30, 5-[2-(benzyloxy)ethyl]-3-[(2,5-difluorobenzyl)sulfanyl][1,2,4]triazolo[4,3-a]pyrimidin-7 (8H)-one] | 943 | 1650 |  |
| CCCc1cc(=O)[nH]c2nnc(SCc3cccc4ccccc34)n12 [Compound 90, 3-[(naphthalen-1-ylmethyl)sulfanyl]-5-propyl[1,2,4]triazolo[4,3-a]pyrimidin-7 (8H)-one] | 2500 |  |  |
| CCCc1cc(=O)[nH]c2nnc(SCc3cc(F)ccc3C)n12 [Compound 12, 3-[(5-fluoro-2-methylbenzyl)sulfanyl]-5-propyl[1,2,4]triazolo[4,3-a]pyrimidin-7 (8H)-one] | 561 | 158 |  |
| CCCc1cc(=O)[nH]c2nnc(SCCc3ccccc3)n12 [Compound 14, 3-[(2-phenylethyl)sulfanyl]-5-propyl[1,2,4]triazolo[4,3-a]pyrimidin-7 (8H)-one] | 1750 |  |  |
| CCCc1cc(=O)[nH]c2nnc(SCc3ccoc3)n12 [Compound 15, 3-[(furan-3-ylmethyl)sulfanyl]-5-propyl[1,2,4]triazolo[4,3-a]pyrimidin-7 (8H)-one] | 2090 |  |  |
| N#Cc1ccc(CSc2nnc3[nH]c(=O)cc(Cc4ccccc4)n23)cc1 [Compound 46, 4-{[(5-benzyl-7-oxo-7,8-dihydro[1,2,4]triazolo[4,3-a]pyrimidin-3-yl)sulfanyl]methyl}benzonitrile] | 4690 |  |  |
| CCCc1cc(=O)[nH]c2nnc(CCc3ccccc3)n12 [Compound 51, 3-(2-phenylethyl)-5-propyl[1,2,4]triazolo[4,3-a]pyrimidin-7 (8H)-one] | 3650 |  |  |
| CC(C)Cc1cc(=O)[nH]c2nnc(SCc3c(F)cccc3Cl)n12 [Compound 40, 3-[(2-chloro-6-fluorobenzyl)sulfanyl]-5-(2-methylpropyl) [1,2,4]triazolo[4,3-a]pyrimidin-7 (8H)-one] | 391 | 218 |  |
| COCc1cc(=O)[nH]c2nnc(SCc3cc(F)ccc3F)n12 [Compound 31, 3-[(2,5-difluorobenzyl)sulfanyl]-5-(methoxymethyl) [1,2,4]triazolo[4,3-a]pyrimidin-7 (8H)-one] | 5660 |  |  |
| CCCc1cc(=O)[nH]c2nnc(Sc3ccccc3)n12 [Compound 47, 3-(phenylsulfanyl)-5-propyl[1,2,4]triazolo[4,3-a]pyrimidin-7 (8H)-one] | 167 | 184 | cells positive for central memory marker CD62L ([3]; vs DMSO (FIG. 1B)): increase; cells positive for pro-survival receptor CD127 ([3]; vs DMSO (FIG. 1C)): increase |
| O=c1cc(CC2CC2)n2c(SCc3c(F)cccc3Cl)nnc2[nH]1 [Compound 41, 3-[(2-chloro-6-fluorobenzyl)sulfanyl]-5-(cyclopropylmethyl) [1,2,4]triazolo[4,3-a]pyrimidin-7 (8H)-one] | 129 |  |  |
| CCCc1c(C)c(=O)[nH]c2nnc(SCc3c(F)cccc3Cl)n12 [Compound 48, 3-[(2-chloro-6-fluorobenzyl)sulfanyl]-6-methyl-5-propyl[1,2,4]triazolo[4,3-a]pyrimidin-7 (8H)-one] | 873 |  |  |
| Cc1cc(=O)[nH]c2nnc(SCc3cc(F)ccc3F)n12 [Compound 29, 3-[(2,5-difluorobenzyl)sulfanyl]-5-methyl[1,2,4]triazolo[4,3-a]pyrimidin-7 (8H)-one] | 5810 |  |  |
| O=c1cc(C2CC2)n2c(SCc3c(F)cccc3Cl)nnc2[nH]1 [Compound 39, 3-[(2-chloro-6-fluorobenzyl)sulfanyl]-5-cyclopropyl[1,2,4]triazolo[4,3-a]pyrimidin-7 (8H)-one] | 593 |  |  |
| CCCc1cc(=O)[nH]c2nnc(SCc3ccc(C#N)cc3)n12 [Compound 18, 4-{[(7-oxo-5-propyl-7,8-dihydro[1,2,4]triazolo[4,3-a]pyrimidin-3-yl)sulfanyl]methyl}benzonitrile] | 4210 |  |  |
| CCCc1cc(=O)[nH]c2nnc(SCc3cccc(OC)c3)n12 [Compound 17, 3-[(3-methoxybenzyl)sulfanyl]-5-propyl[1,2,4]triazolo[4,3-a]pyrimidin-7 (8H)-one] | 2030 |  |  |
| CCCc1cc(=O)[nH]c2nnc(SCc3cc(F)cc(F)c3)n12 [Compound 3, 3-[(3,5-difluorobenzyl)sulfanyl]-5-propyl[1,2,4]triazolo[4,3-a]pyrimidin-7 (8H)-one] | 2200 |  |  |
| O=c1cc(CCOCc2ccccc2Cl)n2c(SCc3cc(F)ccc3F)nnc2[nH]1 [Compound 33, 5-{2-[(2-chlorobenzyl)oxy]ethyl}-3-[(2,5-difluorobenzyl)sulfanyl][1,2,4]triazolo[4,3-a]pyrimidin-7 (8H)-one] | 1320 | 1040 |  |
| O=c1cc(CCOCc2ccccc2)n2c(SCc3c(F)cccc3Cl)n[nH]c2n1 [Compound 43, 5-[2-(benzyloxy)ethyl]-3-[(2-chloro-6-fluorobenzyl)sulfanyl][1,2,4]triazolo[4,3-a]pyrimidin-7 (1H)-one] | 814 | 289 |  |
| CCCc1cc(=O)[nH]c2nnc(SCc3c(C)cccc3C)n12 [Compound 25, 3-[(2,6-dimethylbenzyl)sulfanyl]-5-propyl[1,2,4]triazolo[4,3-a]pyrimidin-7 (8H)-one] | 593 | 171 |  |
| CCCc1cc(=O)[nH]c2nnc(SCc3ccc4occc4c3)n12 [Compound 19, 3-[(1-benzofuran-5-ylmethyl)sulfanyl]-5-propyl[1,2,4]triazolo[4,3-a]pyrimidin-7 (8H)-one] | 3480 |  |  |
| CCCc1cc(=O)[nH]c2nnc(SCc3cccc(C#N)c3)n12 [Compound 7, 3-{[(7-oxo-5-propyl-7,8-dihydro[1,2,4]triazolo[4,3-a]pyrimidin-3-yl)sulfanyl]methyl}benzonitrile] | 10200 |  |  |

Source: US20240360143A1, “[1,2,4]TRIAZOLO[4,3-A]PYRIMIDIN-7(8H)-ONE AS MITOCHONDRIAL PYRUVATE CARRIER INHIBITORS FOR USE IN THE TREATMENT OF CANCER” (MPC THERAPEUTICS SA, priority 2021, published 2024)
